From PubChem BioAssay (NCI)
Values joined by “and” are separate entries in the source; they are usually repeats but may differ in a detail not shown here. Equal entries are not always repeated.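 Tested at 5 concentrations; 48 h exposure; 96-well plates; endpoints linearly interpolated, else capped at highest concentration. Abbreviation: GI50, concentration required for 50% inhibition of growth. TGI denotes the concentration required for complete inhibition of growth.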

Columns and labels:
Experiment in all cases: NCI anticancer screen, dose series, 48 h
COLO 205 colon = system: COLO 205 colon
U251 CNS = system: U251 CNS
SK-MEL-2 melanoma = system: SK-MEL-2 melanoma
RPMI-8226 leukemia = system: RPMI-8226 leukemia
CAKI-1 renal = system: CAKI-1 renal
KM12 colon = system: KM12 colon
SNB-75 CNS = system: SNB-75 CNS
MDA-MB-435 = system: MDA-MB-435
MCF7 breast = system: MCF7 breast
DU-145 prostate = system: DU-145 prostate

Structure (SMILES) | TGI (COLO 205 colon) | TGI (U251 CNS) | TGI (SK-MEL-2 melanoma) | TGI (RPMI-8226 leukemia) | TGI (CAKI-1 renal) | TGI (KM12 colon) | GI50 (SK-MEL-2 melanoma) | GI50 (CAKI-1 renal) | GI50 (SNB-75 CNS) | GI50 (MDA-MB-435) | TGI (MDA-MB-435) | GI50 (MCF7 breast) | TGI (MCF7 breast) | GI50 (COLO 205 colon) | GI50 (U251 CNS) | GI50 (DU-145 prostate) | TGI (DU-145 prostate) | GI50 (RPMI-8226 leukemia) | TGI (SNB-75 CNS) | GI50 (KM12 colon)
CCn1c2ccccc2c(=O)c2c(OC)ccc(OC)c21 | > 100 µM | > 100 µM | > 100 µM | > 100 µM | > 100 µM | > 100 µM | – | – | – | – | – | – | – | – | – | – | – | – | – | –
O=[N+]([O-])c1ccc(C(Cl)C(Cl)c2ccc(C(Cl)C(Cl)c3ccc([N+](=O)[O-])cc3[N+](=O)[O-])cc2)c([N+](=O)[O-])c1 (stereo not drawn) | 1.99 µM | 3.03 µM | 3.27 µM and 0.472 µM | 0.509 µM | 5.7 µM and 1.93 µM | 0.812 µM | 231 nM | 350 nM | 231 nM | – | – | – | – | – | – | – | – | – | – | –
Cc1ccc(/C=C(\NC(=O)c2ccccc2)c2nc3ccccc3[nH]2)cc1 | > 100 µM | > 100 µM | 80.1 µM | – | – | > 100 µM | – | – | – | – | – | – | – | – | – | – | – | – | – | –
N#Cc1c(NC(=O)c2ccc(F)cc2)sc2c1CCCC2 | > 25 µM | > 25 µM | – | > 25 µM | > 25 µM | > 25 µM | – | > 25000 nM | > 25000 nM | > 25000 nM | > 25 µM | > 25000 nM | > 25 µM | > 25000 nM | > 25000 nM | > 25000 nM | > 25 µM | > 25 µM | > 25 µM | > 25000 nM
CCC1C(C(=O)Nc2ccccc2C)=C(C)NC(C)=C1c1ccccc1C (stereo not drawn) | > 100 µM | > 100 µM | > 100 µM | 61.5 µM | > 100 µM | > 100 µM | – | – | – | – | – | – | – | – | – | – | – | – | > 100 µM | –
COc1ccc(NC2=C(I)C(=O)c3ncccc3C2=O)cc1 | 3.47 µM | 2.12 µM | 3.18 µM | 3.85 µM | 2.62 µM | 3.77 µM | 1490 nM | 1210 nM | 1400 nM | 253 nM | 0.628 µM | – | – | 1680 nM | 673 nM | 524 nM | 1.87 µM | 1.17 µM | 2.77 µM | 1680 nM
C[C@@H](NS(=O)(=O)c1ccc(NC(=O)c2ccccc2)cc1)C(=O)O | > 100 µM | > 100 µM | > 100 µM | > 100 µM | > 100 µM | > 100 µM | – | – | – | – | – | – | – | – | – | – | – | – | > 100 µM | –
COc1cc(N2C(=O)[C@H](c3ccccc3)C2c2ccc(SC)cc2)cc(OC)c1OC (stereo partly drawn) | 1.46 µM | > 100 µM | > 100 µM | 7.68 µM | > 100 µM | > 100 µM | 48.9 nM | 46.3 nM | 40 nM | – | – | 35.2 nM | > 100 µM | 36.7 nM | 37.5 nM | 37.3 nM | > 100 µM | 0.0416 µM | > 100 µM | 35.2 nM
COC(=O)c1ncc2c(=O)[nH]c3ccccc3c2c1C(=O)OC | – | – | > 100 µM | > 100 µM | > 100 µM | > 100 µM | – | – | – | – | – | – | – | – | – | – | – | – | > 100 µM | –
COc1cc(CNCCN2C(=O)c3ccc4c5c(ccc(c35)C2=O)C(=O)N(CCNCc2cc(OC)c(OC)c(OC)c2)C4=O)cc(OC)c1OC | 0.673 µM | 0.684 µM | 1.29 µM | – | – | – | 586 nM | – | 232 nM | – | – | 262 nM | 1.05 µM | 177 nM | 182 nM | 197 nM | 0.743 µM | – | 0.826 µM | –
CCN(CC)CC(C)C(=O)/C=C/c1ccc(C)cc1 (stereo not drawn) | 3.02 µM | 3.43 µM | – | > 100 µM | 2.49 µM | 1.96 µM | – | – | – | – | – | – | – | – | – | – | – | – | 3.17 µM | –
NS(=O)(=O)c1ccc(NC(=O)Cc2nc3ccccc3s2)cc1 | 34 µM | 28.5 µM | 31.9 µM | 74.1 µM | 30.5 µM | 30.8 µM | – | – | – | – | – | – | – | – | – | – | – | – | 30.4 µM | –
CC(C)(C)c1cc(CCCCCCCC2(CCCCCCCc3cc(C(C)(C)C)cc(C(C)(C)C)c3)OC(COCCOCCCCCC#N)C(COCCOCCCCCC#N)O2)cc(C(C)(C)C)c1 (stereo not drawn) | > 100 µM | > 100 µM | > 100 µM | – | > 100 µM | > 100 µM | – | – | – | – | – | – | – | – | – | – | – | – | > 100 µM | –
O=C(O)c1ccc(C(O)(c2ccccc2)c2ccccc2)cc1 | > 100 µM | > 100 µM | – | > 100 µM | > 100 µM | > 100 µM | – | – | – | – | > 100 µM | – | > 100 µM | – | – | – | > 100 µM | – | – | –
NC1CCCCC1N.O=C1C=C/C(=C(/c2ccc(O)c(Br)c2)c2ccccc2S(=O)(=O)[O-])C=C1Br.O=C1C=C/C(=C(/c2ccc(O)c(Br)c2)c2ccccc2S(=O)(=O)[O-])C=C1Br.[Pt+4] | 40.6 µM | > 100 µM | > 100 µM | > 100 µM | – | > 100 µM | 10100 nM | – | 992 nM | – | – | – | – | 1640 nM | 5210 nM | – | – | 6.29 µM | > 100 µM | 32600 nM
Cc1ccc(S(=O)(=O)N2CCN(C=S)CC2)cc1 | > 100 µM | > 100 µM | > 100 µM | – | – | > 100 µM | – | – | – | – | – | – | – | – | – | – | – | – | > 100 µM | –
C=CC(=O)NC(N)=NC#N | 280 µM | 296 µM | – | > 67.3 µM and 446 µM | 361 µM | – | – | 171000 nM | – | – | – | – | – | – | – | – | – | 91.6 µM | 289 µM | –
COc1ccc(CCN(CC(=O)N(CC(N)=O)C2CCC[C@@H]2OCc2ccccc2)C(=O)CN(C(=O)CN(CCc2ccc(Cl)cc2)C(=O)CN(C(=O)CN(C)Cc2ccccc2F)[C@H](C)C2CCCCC2)[C@H](C)C2CCCCC2)cc1OC (stereo partly drawn) | 2.4 µM | 17.7 µM | 2.84 µM | 3.28 µM | – | > 50 µM | 946 nM | – | 1090 nM | 1580 nM | > 50 µM | 1170 nM | > 50 µM | 893 nM | 1980 nM | 2420 nM | > 50 µM | 1.19 µM | > 50 µM | 1580 nM
N#CC1=C(N)NC(=S)NC12Nc1ccccc1S2 (stereo not drawn) | 82.6 µM | 79.8 µM | > 100 µM | > 100 µM | 45 µM | 75.5 µM | 44200 nM | 15000 nM | 30400 nM | 19200 nM | 47.6 µM | – | – | 24800 nM | 21400 nM | 17200 nM | > 100 µM | 22.2 µM | > 100 µM | 24900 nM
O=C(CCc1ccccc1)NS(=O)(=O)c1ccccc1 | > 100 µM | > 100 µM | > 100 µM | > 100 µM | > 100 µM | > 100 µM | – | – | – | – | – | – | – | – | – | – | – | – | > 100 µM | –
